The values that follow come from patent US7288554B2, “Ortho-substituted aryl amides for controlling invertebrate pests” (E.I. du Pont de Nemours and Company, priority 2001, dated 2007).

As a reminder, the melting point is the temperature of the solid-liquid transition. Regarding `Cc1cccc(S(=O)(=O)NC(C)C)c1NC(=O)c1cc(C(F)(F)F)nn1-c1ncccc1Cl` [Compound B3, 1-(3-Chloro-2-pyridinyl)-N-[2-methyl-6-[[(1-methylethyl)amino]sulfonyl]phenyl]-3-(trifluoromethyl)-1H-pyrazole-5-carboxamide], the melting point was 69 to 73 °C.
